The text below walks through data of US20210108198A1, “APPLICATION OF COMPOUND OR TRADITIONAL CHINESE MEDICINE EXTRACT IN PREPARATION OF NUCLEIC ACID DELIVERY AGENT AND RELATED PRODUCTS THEREOF” (INSTITUTE OF BASIC MEDICAL SCIENCES CHINESE ACADEMY OF …, priority 2017, published 2021).

In experiment [1] the test system is A549 cell. In words: RT-qPCR detection of nucleic acid delivered by lipid into A549 cells. It counts as cell-based, human. The following applies: RNA 100 nM; for delivery of double-stranded HJT-sRNA-m7 by single lipid (real-time PCR): 12 hours.
Experiment [2] deals with MRC-5 cell. Nature of the experiment: RT-qPCR detection of nucleic acid delivered by lipid into MRC-5 cells. It counts as cell-based. Particulars: RNA 100 nM. The method, then: 3.1 NCI-N87 cell (gastric cancer cell), MRC-5 cell (lung fibroblast), A549 cell (lung cancer cell) were cultured to logarithmic growth phase, and then plated to a six-well plate at cell density of 1×10^6/2 mL medium/well; MRC-5 cell was cultured in Eagle's MEM medium (MEM, Gibco); A549 cell was cultured in Ham's F-12 medium (HyClone); NCI-N87 cell was cultured in RPMI-1640 medium (HyClone); followed by incubation overnight at 37° C., and the follow-up experiments were performed after the cells were attached to the walls.
3.3 After co-incubation with the small RNA for 3 hours, the cells were washed 2-3 times with PBS. The cells were harvested with TRIzol lysis buffer, and the total RNA was extracted. The abundance of small RNA that entered cells was detected by RT-qPCR, and the localization of RNA was detected by fluorescence in situ hybridization; protocols of each detection method were as follows:
3.3.2 RT-qPCR Detection of Small RNA (SYBR Green Dye Method)
The stem-loop primer used in the reverse transcription process was synthesized by Beijing Tsingke Biotechnology Co., Ltd. (U6 RT primer: […] ATG (SEQ ID NO: 21); HJT-sRNA-m7 RT stem-loop primer: […] AA (SEQ ID NO: 22)).
Both the forward and reverse primers of the amplification reaction were designed and synthesized by Beijing Tsingke Biotechnology Co., Ltd. (U6 F Primer: […] (SEQ ID NO: 23), U6 R Primer: […] (SEQ ID NO: 24), HJT-sRNA-m7 F Primer: […] (SEQ ID NO: 25), HJT-sRNA-m7 R Primer: […] (SEQ ID NO: 26)).
3) The relative expression level was calculated by 2-ΔCt method.
3.1.3 After co-incubation with cells for 12-24 hours, the cells were washed twice with PBS. The cells were harvested with TRIzol lysis buffer (purchased from Sigma-Aldrich), and total RNA was extracted.

Where [3] appears, read: boiling (heating) method, 12 hours (No. 37: 3 hours).

Entries after “also recorded” stand apart in the source; their conditions may differ.

As for `CCCCCCCCCCCCCCCCCCC[C@@H](O)[C@@H](N)CO` [No. 41, Sphinganine (d22:0)], the “delivery of double-stranded HJT-sRNA-m7 by single lipid (real-time PCR)” value in experiment [1] (boiling (heating) method, 2.5 μL single lipid) was “delivered HJT-sRNA-m7 double-stranded RNA into A549 cells; also recorded: about twice that of RNAiMAX”; in experiment [1] (reverse evaporation method), “delivered HJT-sRNA-m7 double-stranded RNA into A549 cells; also recorded: significantly higher than that of RNAiMAX”; in experiment [2] (boiling (heating) method), “delivered HJT-sRNA-m7 double-stranded RNA into MRC-5 cells”; in experiment [2] (reverse evaporation method), “delivered HJT-sRNA-m7 double-stranded RNA into MRC-5 cells; also recorded: significantly higher than that of RNAiMAX”. For the same molecule, the “delivery of single-stranded HJT-sRNA-m7 by single lipid (real-time PCR)” value was “delivered HJT-sRNA-m7 single-stranded RNA into A549 and MRC-5 cells” in experiment [1] (setting [3]); “delivered HJT-sRNA-m7 single-stranded RNA into A549 and MRC-5 cells” in experiment [2] (setting [3]).
